According to US9636419B2, “Targeting multiple receptors on a cell surface for specific cell targeting” (The University of Kansas, priority 2013, dated 2017):
“Also recorded” adds a separate entry of the source. Non-standard residues stand in square brackets, D forms with d. *: point of attachment. Cholesteryloxycarbonyl = CC(C)CCC[C@@H](C)[C@H]1CC[C@H]2[C@@H]3CC=C4C[C@@H](OC(=O)*)CC[C@]4(C)[C@H]3CC[C@]12C; mPEG = not defined here; Aib = CC(C)(N)C(=O)O; βAla = NCCC(=O)O

How the values were obtained:
[1] = system: PC3-PSMA cells; test: Binding, uptake and co-localization of fluorophore-labeled aptamers (confocal microscopy, flow cytometry); type: cell-based; conditions: for internalization by cells: AF488-A9, DY650-E07; for colocalization in endosomes: aptamers combined, co-incubation 1 h
Method: To create targeted binary cytotoxins that selectively kill PSMA+/EGFR+ prostate cancer cells, the agents both accumulate in the same endosomal compartments.
Panels B-D show fluorescence micrographs of AF488-labled anti-PSMA apamer (Panel B) and a Dy650-labeled anti-EGFR aptamer (Panel C) following co-incubation with PC3-PSMA cells for 1 h. […] The binary agents are designed to selectively kill PSMA+/EGFR+ prostate cancer cells through the mechanism proposed here both accumulate in common endosomal compartments.

[2] = system: SKBR3 breast cancer cells
Method: Cellular viability was analyzed by flow cytometry after 72 h.

[3] = system: SKBR3 breast cancer cells; test: Release of disulfide-linked fluorophore from EGF or Herceptin conjugates, confocal microscopy; type: cell-based; conditions: fluorophore linked via disulfide to Herceptin or EGF, ED86 at 10-fold higher concentration
Method: In the middle panels, a non-targeted endosome disruptive peptide (ED86) was added. In the bottom panels, a targeted cholesterol modified endosome disruptive peptide (ED108) was added. […] In conjunction with our previous studies of disulfide-linked colchinol conjugates (see provisional application), these studies provide evidence that targeting of two distinct cell surface entities (e.g., two receptors or a receptor and membrane) with a cytotoxic conjugate and an endosome disruptive peptide can confer a synthetic lethal-type effect against cancer cell lines.

| Substance | internalization by cells [1] | colocalization in endosomes [1] | effect on cytotoxicity of the Herceptin-colchinol methyl ether disulfide conjugate [2] | release of disulfide-linked fluorophore into cytoplasm [3] |
| --- | --- | --- | --- | --- |
| A9: PSMA-binding aptamer, 2′F RNA (GGGACCGAAAAAGACCUGACUUCUAUACUAAGUCUACGUUCCC; 2'-fluoro modified RNA, pattern not given here) [Compound A9] | internalized by PC3-PSMA cells | colocalize in endosomes | – | – |
| Cholesterol carbamate-(βAla)2-(Glu)2-mPEG-(βAla)4-(Aib)4-(Trp)2-Ala-Trp-Tyr-(Pro)2-Val-Val-CONH2 (Cholesteryloxycarbonyl-[βAla][βAla]EE[mPEG][βAla][βAla][βAla][βAla][Aib][Aib][Aib][Aib]WWAWYPPVV-NH2; reading uncertain) [ED108] | – | – | synergistically enhances cytotoxicity | Release of the fluorophore from EGF or Herceptin into the cytosol and nucleus was observed; also recorded: release of a disulfide-linked fluorophore from the antibody Herceptin into the cytoplasm |
| H2N-(Aib)4-(Trp)2-Ala-Trp-Tyr-(Pro)2-Val-Val-CONH2 (H-[Aib][Aib][Aib][Aib]WWAWYPPVV-NH2; SMILES CC(C)[C@H](NC(=O)[C@@H](NC(=O)[C@@H]1CCCN1C(=O)[C@@H]1CCCN1C(=O)[C@H](Cc1ccc(O)cc1)NC(=O)[C@H](Cc1c[nH]c2ccccc12)NC(=O)[C@H](C)NC(=O)[C@H](Cc1c[nH]c2ccccc12)NC(=O)[C@H](Cc1c[nH]c2ccccc12)NC(=O)C(C)(C)NC(=O)C(C)(C)NC(=O)C(C)(C)NC(=O)C(C)(C)N)C(C)C)C(N)=O) [ED86] | – | – | – | release was not observed |
| E07: EGFR-binding aptamer, 2′F RNA (GGACGGAUUUAAUCGCCGUAGAAAGCAUGUCAAAGCCGGAACCGUCC; 2'-fluoro modified RNA, pattern not given here) [Compound E07] | internalized by PC3-PSMA cells | colocalize in endosomes | – | – |
